Measurements from US20240208992A1, “MACROCYCLES AS CFTR MODULATORS” (Idorsia Pharmaceuticals Ltd, priority 2021, published 2024).

Biological target: human F508del-CFTR (Homo sapiens, UniProt P13569, DEL508-508)
Assay: F508del-CFTR cell surface expression (corrector activity), DiscoveRx ß-galactosidase complementation chemiluminescence assay in recombinant U2OS cell line;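 further: U2OS cells co-expressing ProLink-tagged F508del-CFTR and a membrane-anchored enzyme acceptor, where more surface CFTR restores β-galactosidase activity measured by chemiluminescence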
Conditions: U2OS cell line, 16h compound incubation; for EC50: EC50, F508del-CFTR cell surface expression, geomean values; for Emax: U2OS, in relation to the Emax of the corrector lumacaftor (=100%), arithmetic mean values

human F508del-CFTR, sequence (P13569 with tags, fused parts or gaps DEL508-508): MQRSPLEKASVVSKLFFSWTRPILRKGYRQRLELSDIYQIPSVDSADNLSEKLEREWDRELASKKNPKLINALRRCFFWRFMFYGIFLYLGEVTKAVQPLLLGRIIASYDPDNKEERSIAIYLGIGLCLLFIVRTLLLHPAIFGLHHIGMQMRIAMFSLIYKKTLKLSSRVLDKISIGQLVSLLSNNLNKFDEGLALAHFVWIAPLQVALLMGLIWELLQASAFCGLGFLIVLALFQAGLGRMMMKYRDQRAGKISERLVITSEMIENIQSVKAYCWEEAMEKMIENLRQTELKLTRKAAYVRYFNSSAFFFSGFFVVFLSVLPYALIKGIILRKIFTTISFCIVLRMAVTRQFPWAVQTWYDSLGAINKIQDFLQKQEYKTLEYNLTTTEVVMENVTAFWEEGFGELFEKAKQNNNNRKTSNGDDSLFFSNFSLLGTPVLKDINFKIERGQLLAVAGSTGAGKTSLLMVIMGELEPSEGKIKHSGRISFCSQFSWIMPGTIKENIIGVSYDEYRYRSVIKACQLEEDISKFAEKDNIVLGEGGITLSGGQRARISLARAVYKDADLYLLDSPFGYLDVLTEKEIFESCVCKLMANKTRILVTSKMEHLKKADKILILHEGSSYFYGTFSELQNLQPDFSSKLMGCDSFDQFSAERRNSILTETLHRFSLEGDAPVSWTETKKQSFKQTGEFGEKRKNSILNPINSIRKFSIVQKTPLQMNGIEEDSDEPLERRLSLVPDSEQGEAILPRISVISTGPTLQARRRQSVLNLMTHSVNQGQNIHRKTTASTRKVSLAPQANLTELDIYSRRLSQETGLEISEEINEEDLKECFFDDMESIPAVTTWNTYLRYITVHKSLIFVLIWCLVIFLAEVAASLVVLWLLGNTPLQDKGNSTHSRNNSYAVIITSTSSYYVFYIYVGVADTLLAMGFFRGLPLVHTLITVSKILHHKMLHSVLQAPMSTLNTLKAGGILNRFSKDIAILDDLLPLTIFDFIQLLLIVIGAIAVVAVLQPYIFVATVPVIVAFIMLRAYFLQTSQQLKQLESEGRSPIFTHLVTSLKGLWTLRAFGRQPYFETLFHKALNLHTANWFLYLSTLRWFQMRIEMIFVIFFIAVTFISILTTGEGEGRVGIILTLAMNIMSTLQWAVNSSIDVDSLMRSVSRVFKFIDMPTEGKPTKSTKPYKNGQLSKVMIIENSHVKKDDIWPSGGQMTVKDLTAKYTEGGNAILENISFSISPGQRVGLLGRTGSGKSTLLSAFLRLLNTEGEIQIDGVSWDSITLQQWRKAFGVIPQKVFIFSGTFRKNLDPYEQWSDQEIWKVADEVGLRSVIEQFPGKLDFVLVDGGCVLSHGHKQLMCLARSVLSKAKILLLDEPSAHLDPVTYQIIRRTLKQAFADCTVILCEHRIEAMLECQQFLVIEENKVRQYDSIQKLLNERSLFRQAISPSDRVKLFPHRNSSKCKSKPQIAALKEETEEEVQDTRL

Row | Compound | EC50 [nM] | Emax [%]
1 | COc1cc2c(cc1OC)C(=O)N[C@H](C(=O)NCCc1ccc3c(c1)OCO3)CC(=O)N(C)[C@@H](CC(C)C)C(=O)N(CC[C@H]1CCCCO1)CC(=O)N[C@H](Cc1ccccc1)CO2 (racemic) [Example 155, (3R,9S,13S)-N-(2-(benzo[d][1,3]dioxol-5-yl)ethyl)-3-benzyl-9-isobutyl-17,18-dimethoxy-10-methyl-5,8,11,15-tetraoxo-7-(2-((RS)-tetrahydro-2H-pyran-2-yl)ethyl)-2,3,4,5,6,7,8,9,10,11,12,13,14,15-tetradecahydrobenzo[p][1]oxa[4,7,10,14]tetraazacycloheptadecine-13-carboxamide] | 260 | 144
2 | COc1cccc2c1C(=O)N[C@H](C(=O)NCCC1CCC(C)(C)CO1)CC(=O)N(C)[C@@H](CC(C)C)C(=O)N(CCC1CCCCC1)CC(=O)N[C@H](Cc1ccccc1)CO2 (mixture of isomers) [Example 157, (3R,9S,13S)-3-benzyl-7-(2-cyclohexylethyl)-N-((RS)-2-(5,5-dimethyltetrahydro-2H-pyran-2-yl)ethyl)-9-isobutyl-16-methoxy-10-methyl-5,8,11,15-tetraoxo-2,3,4,5,6,7,8,9,10,11,12,13,14,15-tetradecahydrobenzo[p][1]oxa[4,7,10,14]tetraazacycloheptadecine-13-carboxamide] | 395 | 121
3 | CC(C)C[C@H]1C(=O)N(C[C@H]2CCCCO2)CC(=O)N[C@H](Cc2ccccc2)COc2ccc3ccccc3c2C(=O)N[C@H](C(=O)NCCc2ccc3c(c2)OCO3)CC(=O)N1C (racemic) [Example 162, (3RS,7S,13R)-N-(2-(benzo[d][1,3]dioxol-5-yl)ethyl)-13-benzyl-7-isobutyl-6-methyl-1,5,8,11-tetraoxo-9-(((R)-tetrahydro-2H-pyran-2-yl)methyl)-1,2,3,4,5,6,7,8,9,10,11,12,13,14-tetradecahydronaphtho[1,2-p][1]oxa[4,7,10,14]tetraazacycloheptadecine-3-carboxamide] | – | 132
4 | CC(C)C[C@H]1C(=O)N(C[C@@H]2CCCCO2)CC(=O)N[C@H](Cc2ccccc2)COc2ccc3ccccc3c2C(=O)N[C@H](C(=O)NCCc2ccc3c(c2)OCO3)CC(=O)N1C (racemic) [Example 163, (3RS,7S,13R)-N-(2-(benzo[d][1,3]dioxol-5-yl)ethyl)-13-benzyl-7-isobutyl-6-methyl-1,5,8,11-tetraoxo-9-(((S)-tetrahydro-2H-pyran-2-yl)methyl)-1,2,3,4,5,6,7,8,9,10,11,12,13,14-tetradecahydronaphtho[1,2-p][1]oxa[4,7,10,14]tetraazacycloheptadecine-3-carboxamide] | 377 | 185
5 | COc1cccc(CCNC(=O)[C@@H]2CC(=O)N(C)[C@@H](CC(C)C)C(=O)N(C[C@H]3CCCCO3)CC(=O)N[C@H](Cc3ccccc3)COc3ccc4ccccc4c3C(=O)N2)c1 (racemic) [Example 164, (3RS,7S,13R)-13-benzyl-7-isobutyl-N-(3-methoxyphenethyl)-6-methyl-1,5,8,11-tetraoxo-9-(((R)-tetrahydro-2H-pyran-2-yl)methyl)-1,2,3,4,5,6,7,8,9,10,11,12,13,14-tetradecahydronaphtho[1,2-p][1]oxa[4,7,10,14]tetraazacycloheptadecine-3-carboxamide] | – | 167
6 | COc1cccc(CCNC(=O)[C@@H]2CC(=O)N(C)[C@@H](CC(C)C)C(=O)N(C[C@@H]3CCCCO3)CC(=O)N[C@H](Cc3ccccc3)COc3ccc4ccccc4c3C(=O)N2)c1 (racemic) [Example 165, (3RS,7S,13R)-13-benzyl-7-isobutyl-N-(3-methoxyphenethyl)-6-methyl-1,5,8,11-tetraoxo-9-(((S)-tetrahydro-2H-pyran-2-yl)methyl)-1,2,3,4,5,6,7,8,9,10,11,12,13,14-tetradecahydronaphtho[1,2-p][1]oxa[4,7,10,14]tetraazacycloheptadecine-3-carboxamide] | 287 | 149
7 | COc1cccc2c1C(=O)N[C@H](C(=O)NCC[C@H]1CCCCO1)CC(=O)N(C)[C@@H](CC(C)C)C(=O)N(CCC1CCCCC1)CC(=O)N[C@H](Cc1ccccc1)CO2 (racemic) [Example 212, (3R,9S,13S)-3-benzyl-7-(2-cyclohexylethyl)-9-isobutyl-16-methoxy-10-methyl-5,8,11,15-tetraoxo-N-(2-((RS)-tetrahydro-2H-pyran-2-yl)ethyl)-2,3,4,5,6,7,8,9,10,11,12,13,14,15-tetradecahydrobenzo[p][1]oxa[4,7,10,14]tetraazacycloheptadecine-13-carboxamide] | 292 | 130
8 | COc1cccc2c1C(=O)N[C@H](C(=O)NCC[C@H]1COc3ccccc3O1)CC(=O)N(C)[C@@H](CC(C)C)C(=O)N(CCC1CCCCC1)CC(=O)N[C@H](Cc1ccccc1)CO2 (racemic) [Example 213, (3R,9S,13S)-3-benzyl-7-(2-cyclohexylethyl)-N-(2-((RS)-2,3-dihydrobenzo[b][1,4]dioxin-2-yl)ethyl)-9-isobutyl-16-methoxy-10-methyl-5,8,11,15-tetraoxo-2,3,4,5,6,7,8,9,10,11,12,13,14,15-tetradecahydrobenzo[p][1]oxa[4,7,10,14]tetraazacycloheptadecine-13-carboxamide] | 292 | 100
9 | COc1ccc(CCNC(=O)[C@@H]2CC(=O)N(C)[C@@H](CC(C)C)C(=O)N(CCC3CCCCC3)CC(=O)N[C@H](Cc3ccccc3)COc3cccc(OC)c3C(=O)N2)cc1 (racemic) [Example 219, (3R,9S,13RS)-3-benzyl-7-(2-cyclohexylethyl)-9-isobutyl-16-methoxy-N-(4-methoxyphenethyl)-10-methyl-5,8,11,15-tetraoxo-2,3,4,5,6,7,8,9,10,11,12,13,14,15-tetradecahydrobenzo[p][1]oxa[4,7,10,14]tetraazacycloheptadecine-13-carboxamide] | 206 | 182
10 | CN1C(=O)C[C@@H](C(=O)NCCc2ccc3c(c2)OCO3)NC(=O)c2c(ccc3ccccc23)OC[C@@H](Cc2ccccc2)NC(=O)CN(C[C@@H]2CCCCO2)C(=O)[C@@H]1CC1CCCC1 (racemic) [Example 284, (3RS,7S,13R)-N-(2-(benzo[d][1,3]dioxol-5-yl)ethyl)-13-benzyl-7-(cyclopentylmethyl)-6-methyl-1,5,8,11-tetraoxo-9-(((S)-tetrahydro-2H-pyran-2-yl)methyl)-1,2,3,4,5,6,7,8,9,10,11,12,13,14-tetradecahydronaphtho[1,2-p][1]oxa[4,7,10,14]tetraazacycloheptadecine-3-carboxamide] | – | 136
11 | CN1C(=O)C[C@@H](C(=O)NCCc2ccc3c(c2)OCO3)NC(=O)c2c(ccc3ccccc23)OC[C@@H](Cc2ccccc2)NC(=O)CN(C[C@@H]2CCCCO2)C(=O)[C@@H]1CC1CCCCC1 (racemic) [Example 285, (3RS,7S,13R)-N-(2-(benzo[d][1,3]dioxol-5-yl)ethyl)-13-benzyl-7-(cyclohexylmethyl)-6-methyl-1,5,8,11-tetraoxo-9-(((S)-tetrahydro-2H-pyran-2-yl)methyl)-1,2,3,4,5,6,7,8,9,10,11,12,13,14-tetradecahydronaphtho[1,2-p][1]oxa[4,7,10,14]tetraazacycloheptadecine-3-carboxamide] | – | 118
12 | CN1C(=O)C[C@@H](C(=O)NCCc2ccc3c(c2)OCO3)NC(=O)c2c(ccc3ccccc23)OC[C@@H](Cc2ccccc2)NC(=O)CN(C[C@H]2CCCCO2)C(=O)[C@@H]1CC1CCCC1 (racemic) [Example 286, (3RS,7S,13R)-N-(2-(benzo[d][1,3]dioxol-5-yl)ethyl)-13-benzyl-7-(cyclopentylmethyl)-6-methyl-1,5,8,11-tetraoxo-9-(((R)-tetrahydro-2H-pyran-2-yl)methyl)-1,2,3,4,5,6,7,8,9,10,11,12,13,14-tetradecahydronaphtho[1,2-p][1]oxa[4,7,10,14]tetraazacycloheptadecine-3-carboxamide] | – | 144
13 | CN1C(=O)C[C@@H](C(=O)NCCc2ccc3c(c2)OCO3)NC(=O)c2c(ccc3ccccc23)OC[C@@H](Cc2ccccc2)NC(=O)CN(C[C@H]2CCCCO2)C(=O)[C@@H]1CC1CCCCC1 (racemic) [Example 287, (3RS,7S,13R)-N-(2-(benzo[d][1,3]dioxol-5-yl)ethyl)-13-benzyl-7-(cyclohexylmethyl)-6-methyl-1,5,8,11-tetraoxo-9-(((R)-tetrahydro-2H-pyran-2-yl)methyl)-1,2,3,4,5,6,7,8,9,10,11,12,13,14-tetradecahydronaphtho[1,2-p][1]oxa[4,7,10,14]tetraazacycloheptadecine-3-carboxamide] | 207 | 154
14 | CN1C(=O)C[C@@H](C(=O)NCCc2ccc3c(c2)OCO3)NC(=O)c2c(ccc3ccccc23)OC[C@@H](Cc2ccccc2)NC(=O)CN(CC[C@H]2CCCCO2)C(=O)[C@@H]1CC1CCCC1 (racemic) [Example 288, (3RS,7S,13R)-N-(2-(benzo[d][1,3]dioxol-5-yl)ethyl)-13-benzyl-7-(cyclopentylmethyl)-6-methyl-1,5,8,11-tetraoxo-9-(2-((SR)-tetrahydro-2H-pyran-2-yl)ethyl)-1,2,3,4,5,6,7,8,9,10,11,12,13,14-tetradecahydronaphtho[1,2-p][1]oxa[4,7,10,14]tetraazacycloheptadecine-3-carboxamide] | 147 | 175
15 | CN1C(=O)C[C@@H](C(=O)NCCc2ccc3c(c2)OCO3)NC(=O)c2c(ccc3ccccc23)OC[C@@H](Cc2ccccc2)NC(=O)CN(CC[C@H]2CCCCO2)C(=O)[C@@H]1CC1CCCCC1 (racemic) [Example 289, (3RS,7S,13R)-N-(2-(benzo[d][1,3]dioxol-5-yl)ethyl)-13-benzyl-7-(cyclohexylmethyl)-6-methyl-1,5,8,11-tetraoxo-9-(2-((SR)-tetrahydro-2H-pyran-2-yl)ethyl)-1,2,3,4,5,6,7,8,9,10,11,12,13,14-tetradecahydronaphtho[1,2-p][1]oxa[4,7,10,14]tetraazacycloheptadecine-3-carboxamide] | 186 | 160
